In PubChem BioAssay AID330 (DTP/NCI, 2004):
Values joined by “and” are separate entries in the source; they are usually repeats but may differ in a detail not shown here. Equal entries are not always repeated. Inconclusive results and toxic doses are left out. Rule for the calls: active = survival T/C of 150% or more; inactive = T/C below 125% in these data.

System: P388 leukemia ip, CD2F1 mice, survival T/C
Experiment: NCI In Vivo Anticancer Drug Screen. Data for tumor model P388 Leukemia (intraperitoneal) in CD2F1 (CDF1) mice
Settings: endpoint: median survival time, higher = longer survival
Summary of the method: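 Mice carrying the transplanted tumor received test compound or vehicle. Survival was recorded in each group, and the value is the treated-group measurement divided by that of the vehicle-treated control group.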

[1] = dose: 50.0 mg/kg/injection, schedule: Q01DX009 (ip), vehicle: Klucel (hydroxypropylcellulose) (HPC)
[2] = dose: 50.0 mg/kg/injection, schedule: Q01DX005 (ip), vehicle: saline with Tween-80
[3] = dose: 100.0 mg/kg/injection, schedule: Q01DX005 (ip), vehicle: saline with Tween-80
[4] = dose: 50.0 mg/kg/injection, schedule: Q01DX009 (ip), vehicle: saline with Tween-80
[5] = dose: 25.0 mg/kg/injection, schedule: Q01DX009 (ip), vehicle: saline with Tween-80
[6] = dose: 100.0 mg/kg/injection, schedule: Q01DX009 (ip), vehicle: saline with Tween-80
[7] = dose: 200.0 mg/kg/injection, schedule: Q01DX009 (ip), vehicle: saline with Tween-80
[8] = dose: 50.0 mg/kg/injection, schedule: Q01DX009 (ip), vehicle: saline
[9] = dose: 100.0 mg/kg/injection, schedule: Q01DX009 (ip), vehicle: saline
[10] = dose: 25.0 mg/kg/injection, schedule: Q01DX009 (ip), vehicle: other
[11] = dose: 50.0 mg/kg/injection, schedule: Q01DX009 (ip), vehicle: other
[12] = dose: 100.0 mg/kg/injection, schedule: Q01DX009 (ip), vehicle: other
[13] = dose: 100.0 mg/kg/injection, schedule: Q04DX003 (ip), vehicle: saline
[14] = dose: 200.0 mg/kg/injection, schedule: Q04DX003 (ip), vehicle: saline
[15] = dose: 400.0 mg/kg/injection, schedule: Q04DX003 (ip), vehicle: saline

Measured: T/C

CCOc1cc(=O)cc2n(-c3cc(OCC)c(O)c(OCC)c3)c3ccccc3nc1-2
inactive: dose: 50.0 mg/kg/injection, schedule: Q01DX009 (ip), vehicle: suspension in saline 100 % of control | dose: 100.0 mg/kg/injection, schedule: Q01DX009 (ip), vehicle: suspension in saline 101 % of control | dose: 200.0 mg/kg/injection, schedule: Q01DX009 (ip), vehicle: suspension in saline 97 % of control

Cc1cc(Cl)n2nc(-c3ccc(Cl)cc3)nc2n1
inactive: dose: 12.5 mg/kg/injection, schedule: Q01DX009 (ip), vehicle: Klucel (hydroxypropylcellulose) (HPC) 106 % of control | dose: 25.0 mg/kg/injection, schedule: Q01DX009 (ip), vehicle: Klucel (hydroxypropylcellulose) (HPC) 100 % of control | [1] 109 % of control and 110 % of control

CCOC(=O)Nc1ccc2c3c(cccc13)-c1ccccc1-2
inactive: dose: 50.0 mg/kg/injection, schedule: Q01DX005 (ip), vehicle: Klucel (hydroxypropylcellulose) (HPC) 90 % of control | dose: 100.0 mg/kg/injection, schedule: Q01DX005 (ip), vehicle: Klucel (hydroxypropylcellulose) (HPC) 97 % of control | dose: 200.0 mg/kg/injection, schedule: Q01DX005 (ip), vehicle: Klucel (hydroxypropylcellulose) (HPC) 91 % of control

CCCCCNc1ncnc2[nH]ncc12
inactive: [2] 96 % of control | [3] 102 % of control

CC1C(=O)OC(C)(C)C1(C)C (centres undefined)
inactive: [4] 101 % of control

C=C1C(=O)OC2C1CCC1(C)CCCC(=C)C21 (centres undefined)
inactive: dose: 2.5 mg/kg/injection, schedule: Q01DX009 (ip), vehicle: Klucel (hydroxypropylcellulose) (HPC) 93 % of control | dose: 5.0 mg/kg/injection, schedule: Q01DX009 (ip), vehicle: Klucel (hydroxypropylcellulose) (HPC) 96 % of control | dose: 10.0 mg/kg/injection, schedule: Q01DX009 (ip), vehicle: Klucel (hydroxypropylcellulose) (HPC) 92 % of control | dose: 20.0 mg/kg/injection, schedule: Q01DX009 (ip), vehicle: Klucel (hydroxypropylcellulose) (HPC) 96 % of control

O=C(/C=C/c1ccccc1)NOC(=O)/C=C/c1ccccc1
inactive: [5] 107 % of control | [4] 107 % of control and 123 % of control | [6] 111 % of control and 114 % of control | [7] 115 % of control

C=C1C(=O)C23C(OC(=O)CCCCCCCCCCC)C1CCC2C12COC3(O)C(O)C1C(C)(C)CCC2O (centres undefined)
inactive: dose: 3.75 mg/kg/injection, schedule: Q01DX009 (ip), vehicle: saline with Tween-80 98 % of control | dose: 7.5 mg/kg/injection, schedule: Q01DX009 (ip), vehicle: saline with Tween-80 103 % of control | dose: 15.0 mg/kg/injection, schedule: Q01DX009 (ip), vehicle: saline with Tween-80 95 % of control | dose: 30.0 mg/kg/injection, schedule: Q01DX009 (ip), vehicle: saline with Tween-80 100 % of control

O=C(O)c1nc2cn1/C=C\C=NCC1=CN3C=CC=NC3(C(=O)O)N1C2 (centres undefined)
inactive: [5] 101 % of control | [4] 109 % of control | [6] 95 % of control

COCCCn1c(-c2cc(OC)c(OC)c(OC)c2)nn2c(=O)c3ccccc3nc2c1=O
inactive: [8] 102 % of control | [9] 107 % of control | dose: 200.0 mg/kg/injection, schedule: Q01DX009 (ip), vehicle: saline 101 % of control

COc1ccc(N=C(N=C(NC(=O)c2ccccc2)c2ccccc2)c2ccccc2)cc1
inactive: [4] 104 % of control and 95 % of control | [6] 103 % of control and 92 % of control | [7] 100 % of control

CN1CCN(CCCN2CC(=O)N3Cc4ccccc4CN3C(=O)C2)CC1
inactive: dose: 50.0 mg/kg/injection, schedule: Q01DX005 (ip), vehicle: saline 102 % of control | dose: 100.0 mg/kg/injection, schedule: Q01DX005 (ip), vehicle: saline 102 % of control | dose: 200.0 mg/kg/injection, schedule: Q01DX005 (ip), vehicle: saline 103 % of control

O=[N+]([O-])c1ccccc1OCC(O)CCl (centres undefined)
inactive: [4] 102 % of control | [6] 99 % of control

C/C(=N\NC(=O)CCl)C(C)(C)C
inactive: dose: 25.0 mg/kg/injection, schedule: Q01DX009 (ip), vehicle: saline 111 % of control | [8] 109 % of control | [9] 103 % of control

CCNC(=O)N(Cc1ccccc1)Cc1ccccc1
inactive: dose: 12.5 mg/kg/injection, schedule: Q01DX009 (ip), vehicle: other 114 % of control | [10] 112 % of control | [11] 104 % of control | [12] 118 % of control

CC(C)(C)NC1/C(=C\c2ccccc2)C(=O)c2ccccc2C1(C)C (centres undefined)
inactive: [10] 109 % of control | [11] 101 % of control | [12] 110 % of control | dose: 200.0 mg/kg/injection, schedule: Q01DX009 (ip), vehicle: other 124 % of control

O=C1N2CCNc3ccccc3C(c3ccccc3)N1CC2 (centres undefined)
inactive: dose: 6.25 mg/kg/injection, schedule: Q01DX005 (ip), vehicle: Klucel (hydroxypropylcellulose) (HPC) 88 % of control | dose: 12.5 mg/kg/injection, schedule: Q01DX005 (ip), vehicle: Klucel (hydroxypropylcellulose) (HPC) 93 % of control | dose: 25.0 mg/kg/injection, schedule: Q01DX005 (ip), vehicle: Klucel (hydroxypropylcellulose) (HPC) 102 % of control

CCOC1=Nc2ccccc2C1(C)CCO (centres undefined)
inactive: dose: 60.0 mg/kg/injection, schedule: Q01DX005 (ip), vehicle: saline with Tween-80 96 % of control | dose: 120.0 mg/kg/injection, schedule: Q01DX005 (ip), vehicle: saline with Tween-80 101 % of control | dose: 240.0 mg/kg/injection, schedule: Q01DX005 (ip), vehicle: saline with Tween-80 96 % of control

Cc1ccc(-n2nnc(-c3ccc(Cl)c(Cl)c3)n2)cc1
inactive: [2] 103 % of control | [3] 103 % of control | dose: 200.0 mg/kg/injection, schedule: Q01DX005 (ip), vehicle: saline with Tween-80 100 % of control

Cc1ccc(N=Cc2cccs2)cc1Cl
inactive: [1] 94 % of control | dose: 100.0 mg/kg/injection, schedule: Q01DX009 (ip), vehicle: Klucel (hydroxypropylcellulose) (HPC) 113 % of control | dose: 200.0 mg/kg/injection, schedule: Q01DX009 (ip), vehicle: Klucel (hydroxypropylcellulose) (HPC) 106 % of control

O=C(O)c1c[n+]([O-])ccc1OCc1ccccc1
inactive: [13] 100 % of control | [14] 98 % of control | [15] 94 % of control

O=C1CC(=P(c2ccccc2)(c2ccccc2)c2ccccc2)C(=O)O1
inactive: dose: 50.0 mg/kg/injection, schedule: Q04DX003 (ip), vehicle: saline 102 % of control | [13] 100 % of control | [14] 109 % of control | [15] 106 % of control

O=C(CCCl)Oc1ccc(Br)cc1
inactive: dose: 100.0 mg/kg/injection, schedule: Q01DX009 (ip), vehicle: saline sonified 111 % of control | dose: 200.0 mg/kg/injection, schedule: Q01DX009 (ip), vehicle: saline sonified 100 % of control | dose: 400.0 mg/kg/injection, schedule: Q01DX009 (ip), vehicle: saline sonified 94 % of control

CCC1=C[C@H]2CN(CCc3c([nH]c4ccccc34)[C@@](C(=O)OC)(c3cc4c(cc3OC)N(C=O)[C@H]3[C@@](O)(C(=O)OC)[C@H](OC(C)=O)[C@]5(CC)C=CCN6CC[C@]43[C@@H]65)C2)C1
inactive: dose: 0.13 mg/kg/injection, schedule: Q01DX001 (ip), vehicle: water 99 % of control | dose: 0.25 mg/kg/injection, schedule: Q01DX001 (ip), vehicle: water 100 % of control | dose: 0.5 mg/kg/injection, schedule: Q01DX001 (ip), vehicle: water 116 % of control
